Consider four compounds from patent US4526989A, “1,4-Bis (substituted-amino)-5,8-dihydroxy-anthraquinones and leuco bases thereof” (priority 1979, dated 1985).

Where two headings read alike, the source gives them in different places.

Assay [1] deals with lymphocytic leukemia P388. Briefly: Lymphocytic leukemia P388 test (intraperitoneal administration). In kind it is in vivo, DBA/2 mice. How it is done: The animals used are DBA/2 mice all of one sex, weighing a minimum of 17 g. and all within a 3 gram weight range. There are 5 or 6 animals per test group. The tumor transplant is by intraperitoneal injection of 0.1 ml. of dilute ascitic fluid containing 10^6 cells of lymphocytic leukemia P388. The test compounds are administered intraperitoneally on days one, 5 and 9 (relative to tumor inoculation) at various doses. The animals are weighed and survivors are recorded on a regular basis for 30 days. The median survival time and the ratio of survival time for treated (T)/control (C) animals are calculated.

A further assay deals with melanotic melanoma B16. Kind of assay: Melanotic Melanoma B16 test. In kind it is in vivo, C57BC/6 mice. To be noted: days 1 through 9. How it is done: The animals used are C57BC/6 mice, all of the same sex, weighing a minimum of 17 g. and all within a 3-g. weight range. There are normally 10 animals per test group. A one-gram portion of melanotic melanoma B16 tumor is homogenized in 10 ml. of cold balanced salt solution and a 0.5-ml. aliquot of the homogenate is implanted intraperitoneally into each of the test mice. The test compounds are administered intraperitoneally on days one through 9 (relative to tumor inoculation) at various doses. The animals are weighed and survivors are recorded on a regular basis for 60 days. The median survival time and the ratio of survival time for treated (T)/control (C) animals are calculated. […] The criterion for efficacy is T/C×100≥125%.

Setting [2] is: 12.5 mg./kg. i.p., days 1, 5 and 9.
[3] abbreviates: 25 mg./kg. i.p., days 1, 5 and 9.
Setting [4] is: 50 mg./kg. i.p., days 1, 5 and 9.
Setting [5] is: 100 mg./kg. i.p., days 1, 5 and 9.
Setting [6] is: 200 mg./kg. i.p., days 1, 5 and 9.
The mark [7] stands for this setting: Mus musculus, P388, ip, 12.5 mg./kg. i.p., days 1, 5 and 9, efficacy ≥125%, read-out: T/C × 100.
[8] abbreviates: Mus musculus, P388, ip, 25 mg./kg. i.p., days 1, 5 and 9, efficacy ≥125%, read-out: T/C × 100.
Where [9] appears, read: Mus musculus, P388, ip, 50 mg./kg. i.p., days 1, 5 and 9, efficacy ≥125%, read-out: T/C × 100.
Where [10] appears, read: Mus musculus, P388, ip, 100 mg./kg. i.p., days 1, 5 and 9, efficacy ≥125%, read-out: T/C × 100.
The mark [11] stands for this setting: Mus musculus, ip, 6 mg./kg. i.p., efficacy ≥125%, read-out: T/C × 100.
Setting [12] is: Mus musculus, ip, 12.5 mg./kg. i.p., efficacy ≥125%, read-out: T/C × 100.
Setting [13] is: Mus musculus, ip, 25 mg./kg. i.p., efficacy ≥125%, read-out: T/C × 100.
Setting [14] is: Mus musculus, ip, 50 mg./kg. i.p., efficacy ≥125%, read-out: T/C × 100.
Where [15] appears, read: 6.2 mg./kg. i.p., days 1, 5 and 9.
Where [16] appears, read: Mus musculus, P388, ip, 6.2 mg./kg. i.p., days 1, 5 and 9, efficacy ≥125%, read-out: T/C × 100.
The mark [17] stands for this setting: Mus musculus, ip, 3 mg./kg. i.p., efficacy ≥125%, read-out: T/C × 100.
The mark [18] stands for this setting: Mus musculus, P388, ip, 200 mg./kg. i.p., days 1, 5 and 9, efficacy ≥125%, read-out: T/C × 100.

As for `CC(CNC1=C2C(=O)c3c(O)ccc(O)c3C(=O)C2=C(NCC(C)N(C)C)CC1)N(C)C` (stereo not drawn) [Leuco-1,4-bis[2-dimethylaminopropylamino]-5,8-dihydroxyanthraquinone], the “Median Survival Time” value in assay [1] (setting [2]) was found to be 11.0 days; in assay [1] (setting [3]), 13.0 days; in assay [1] (setting [4]) it was 14.0 days; in assay [1] (setting [5]) it was 15.0 days; in assay [1] (setting [6]), 18.0 days; with melanotic melanoma B16 (6 mg./kg. i.p.), 19.5 days. Further, the “Median Survival Time” value with melanotic melanoma B16 (12.5 mg./kg. i.p.) was determined as 20.5 days; in the assay on melanotic melanoma B16 (25 mg./kg. i.p.) it was 24.5 days; in the assay with melanotic melanoma B16 (50 mg./kg. i.p.), 28.5 days; in the assay on melanotic melanoma B16 (100 mg./kg. i.p.) it was 21.0 days. Further, the response vs control in vivo at 200 mg/kg in assay [1] (Mus musculus, P388, ip, read-out: T/C × 100) amounted to 200%. Moreover, the response vs control in vivo at 12.5 mg/kg in assay [1] (setting [7]) was 122%; in the assay on melanotic melanoma B16 (setting [12]) it was 121%. The response vs control in vivo at 25 mg/kg (in assay [1] (setting [8]); with melanotic melanoma B16 (setting [13])) was 144% throughout. Further, the response vs control in vivo at 50 mg/kg was 156% in assay [1] (setting [9]) and 168% in the assay with melanotic melanoma B16 (setting [14]). Moreover, the response vs control in vivo at 100 mg/kg in assay [1] (setting [10]) came to 167%; in the assay with melanotic melanoma B16 (Mus musculus, ip, 100 mg./kg. i.p., efficacy ≥125%, read-out: T/C × 100), 124%. Besides, the response vs control in vivo at 6 mg/kg with melanotic melanoma B16 (setting [11]) came to 115%.

As for `O=C1C2=C(NCCNCCO)CCC(NCCNCCO)=C2C(=O)c2c(O)ccc(O)c21` [Leuco-1,4-bis[2-(2-hydroxyethylamino)ethylamino]-5,8-dihydroxyanthraquinone], the “Median Survival Time” value was 18.5 days in assay [1] (0.04 mg./kg. i.p., days 1, 5 and 9); 21.5 days in assay [1] (0.09 mg./kg. i.p., days 1, 5 and 9); 21.5 days in assay [1] (0.19 mg./kg. i.p., days 1, 5 and 9); 22.0 days in assay [1] (0.39 mg./kg. i.p., days 1, 5 and 9); 28.0 days in assay [1] (0.78 mg./kg. i.p., days 1, 5 and 9); over 30.0 days in assay [1] (1.5 mg./kg. i.p., days 1, 5 and 9). The “Median Survival Time” value in assay [1] (3.1 mg./kg. i.p., days 1, 5 and 9) is 26.0 days; in assay [1] (setting [15]), 23.0 days; in assay [1] (setting [2]) it was 23.5 days; in assay [1] (setting [3]) it was 12.0 days; in the assay with melanotic melanoma B16 (0.37 mg./kg. i.p.), 22.0 days; in the assay with melanotic melanoma B16 (0.75 mg./kg. i.p.), 28.5 days. Moreover, the “Median Survival Time” value in the assay with melanotic melanoma B16 (1.5 mg./kg. i.p.) stood at 30.0 days; with melanotic melanoma B16 (3 mg./kg. i.p.) it was 20.5 days; in the assay with melanotic melanoma B16 (6 mg./kg. i.p.), 9.5 days. The response vs control in vivo at 0.19 mg/kg in assay [1] (Mus musculus, P388, ip, 0.19 mg./kg. i.p., days 1, 5 and 9, efficacy ≥125%, read-out: T/C × 100) came to 205%. Besides, the response vs control in vivo at 0.04 mg/kg in assay [1] (Mus musculus, P388, ip, 0.04 mg./kg. i.p., days 1, 5 and 9, efficacy ≥125%, read-out: T/C × 100) stood at 176%. The response vs control in vivo at 0.09 mg/kg in assay [1] (Mus musculus, P388, ip, 0.09 mg./kg. i.p., days 1, 5 and 9, efficacy ≥125%, read-out: T/C × 100) is 205%. In assay [1] (Mus musculus, P388, ip, 0.39 mg./kg. i.p., days 1, 5 and 9, efficacy ≥125%, read-out: T/C × 100), the response vs control in vivo at 0.39 mg/kg came out at 209%. For the same compound, in assay [1] (Mus musculus, P388, ip, 0.78 mg./kg. i.p., days 1, 5 and 9, efficacy ≥125%, read-out: T/C × 100), the response vs control in vivo at 0.78 mg/kg worked out at 267%. Moreover, the response vs control in vivo at 1.5 mg/kg was over 286% in assay [1] (Mus musculus, P388, ip, 1.5 mg./kg. i.p., days 1, 5 and 9, efficacy ≥125%, read-out: T/C × 100); 187% in the assay with melanotic melanoma B16 (Mus musculus, ip, 1.5 mg./kg. i.p., efficacy ≥125%, read-out: T/C × 100). For the same compound, the response vs control in vivo at 3.1 mg/kg in assay [1] (Mus musculus, P388, ip, 3.1 mg./kg. i.p., days 1, 5 and 9, efficacy ≥125%, read-out: T/C × 100) amounted to 248%. Further, the response vs control in vivo at 6.2 mg/kg in assay [1] (setting [16]) stood at 219%. For the same compound, in assay [1] (setting [7]), the response vs control in vivo at 12.5 mg/kg was determined as 224%. The response vs control in vivo at 25 mg/kg in assay [1] (setting [8]) was 114%. The response vs control in vivo at 0.37 mg/kg in the assay with melanotic melanoma B16 (Mus musculus, ip, 0.37 mg./kg. i.p., efficacy ≥125%, read-out: T/C × 100) came to 137%. The response vs control in vivo at 0.75 mg/kg in the assay on melanotic melanoma B16 (Mus musculus, ip, 0.75 mg./kg. i.p., efficacy ≥125%, read-out: T/C × 100) is 178%. The response vs control in vivo at 3 mg/kg in the assay on melanotic melanoma B16 (setting [17]) amounted to 128%. Besides, the response vs control in vivo at 6 mg/kg in the assay with melanotic melanoma B16 (setting [11]) is 59%.

Take `CNCCNCCNC1=C2C(=O)c3c(O)ccc(O)c3C(=O)C2=C(NCCNCCNC)CC1` [Leuco-1,4-bis[2-(2-methylaminoethylamino)ethylamino]-5,8-dihydroxyanthraquinone]: the “Median Survival Time” value in assay [1] (setting [15]) came out at 15.0 days; in assay [1] (setting [2]), 16.0 days; in assay [1] (setting [3]) it was 21.0 days; in assay [1] (setting [4]), 28.0 days; in assay [1] (setting [5]), 26.0 days; in assay [1] (setting [6]), 2.0 days. In addition, the “Median Survival Time” value was determined as 28.5 days with melanotic melanoma B16 (6.2 mg./kg. i.p.), 39.5 days with melanotic melanoma B16 (12.5 mg./kg. i.p.), 35.0 days in the assay on melanotic melanoma B16 (25 mg./kg. i.p.) and 12.5 days with melanotic melanoma B16 (50 mg./kg. i.p.). Moreover, the response vs control in vivo at 6.2 mg/kg in assay [1] (setting [16]) worked out at 136%; in the assay with melanotic melanoma B16 (Mus musculus, ip, 6.2 mg./kg. i.p., efficacy ≥125%, read-out: T/C × 100), 168%. Moreover, the response vs control in vivo at 12.5 mg/kg is 145% in assay [1] (setting [7]) and 232% in the assay on melanotic melanoma B16 (setting [12]). In addition, the response vs control in vivo at 25 mg/kg in assay [1] (setting [8]) is 191%; in the assay on melanotic melanoma B16 (setting [13]) it was 206%. Also, the response vs control in vivo at 50 mg/kg was determined as 255% in assay [1] (setting [9]) and 73% in the assay with melanotic melanoma B16 (setting [14]). Moreover, the response vs control in vivo at 100 mg/kg in assay [1] (setting [10]) was 236%. For the same compound, the response vs control in vivo at 200 mg/kg in assay [1] (setting [18]) came to 18%.

For `O=C1C2=C(NCCN3CCNCC3)CCC(NCCN3CCNCC3)=C2C(=O)c2c(O)ccc(O)c21` [Leuco-1,4-bis[2-(1-piperazinyl)ethylamino]-5,8-dihydroxyanthraquinone], the “Median Survival Time” value in assay [1] (setting [2]) was 14.0 days; in assay [1] (setting [3]), 15.0 days; in assay [1] (setting [4]) it was 16.0 days; in assay [1] (setting [5]) it was 21.0 days; in assay [1] (setting [6]) it was 7.0 days; with melanotic melanoma B16 (3 mg./kg. i.p.), 20.5 days. Besides, the “Median Survival Time” value with melanotic melanoma B16 (6 mg./kg. i.p.) was determined as 22.0 days; with melanotic melanoma B16 (12.5 mg./kg. i.p.), 26.0 days; with melanotic melanoma B16 (25 mg./kg. i.p.) it was 30.5 days; in the assay on melanotic melanoma B16 (50 mg./kg. i.p.) it was 34.5 days. Also, the response vs control in vivo at 12.5 mg/kg amounted to 156% in assay [1] (setting [7]) and 153% in the assay on melanotic melanoma B16 (setting [12]). Moreover, the response vs control in vivo at 25 mg/kg in assay [1] (setting [8]) came out at 167%; in the assay with melanotic melanoma B16 (setting [13]) it was 179%. The values for the response vs control in vivo at 50 mg/kg (in assay [1] (setting [9]); with melanotic melanoma B16 (setting [14])) were 178% and 203%, respectively. The response vs control in vivo at 100 mg/kg in assay [1] (setting [10]) worked out at 233%. For the same compound, the response vs control in vivo at 200 mg/kg in assay [1] (setting [18]) stood at 78%. Further, the response vs control in vivo at 3 mg/kg with melanotic melanoma B16 (setting [17]) turned out to be 121%. Further, the response vs control in vivo at 6 mg/kg in the assay with melanotic melanoma B16 (setting [11]) is 129%.
